In ChEMBL document CHEMBL1201862, “PubChem BioAssay data set” (2004):
The source made the active and inactive calls.

Columns and labels:
[1] = system: Vero; experiment: viability loss in Vero cells – cell-based, plate reader, cherry-pick samples, cytotoxicity control, dose response (AID 687020); format: functional; conditions: Chlorocebus sabaeus
[2] = target: T1, Beta-lactamase (Pseudomonas aeruginosa, UniProt Q79MP6); experiment: […] counterscreen for selective VIM-2 inhibitors: dose response biochemical high throughput screening assay to identify inhibitors of IMP-1 metallo-beta-lactamase.
T1 sequence (Q79MP6 whole entry): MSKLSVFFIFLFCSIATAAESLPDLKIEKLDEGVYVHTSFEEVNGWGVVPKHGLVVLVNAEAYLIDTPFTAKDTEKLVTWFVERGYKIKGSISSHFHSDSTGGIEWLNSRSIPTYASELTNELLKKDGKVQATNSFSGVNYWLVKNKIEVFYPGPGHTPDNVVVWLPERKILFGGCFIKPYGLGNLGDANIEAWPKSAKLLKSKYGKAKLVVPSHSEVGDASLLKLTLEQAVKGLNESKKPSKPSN

[3] = target: T1, Beta-lactamase; experiment: inhibition of IMP-1 beta-lactamase activity – biochemical, epi-absorbance, selectivity assay for VIM-2 inhibitor project, dose response (AID 1920)
[4] = target: Beta-lactamase (Salmonella choleraesuis (strain SC-B67), UniProt Q5J463); experiment: Epi-absorbance-based counterscreen for selective VIM-2 inhibitors: dose response biochemical high throughput screening assay to identify inhibitors of TEM-1 serine-beta-lactamase.
Beta-lactamase (Salmonella choleraesuis (strain SC-B67), UniProt Q5J463), sequence (Q5J463 whole entry): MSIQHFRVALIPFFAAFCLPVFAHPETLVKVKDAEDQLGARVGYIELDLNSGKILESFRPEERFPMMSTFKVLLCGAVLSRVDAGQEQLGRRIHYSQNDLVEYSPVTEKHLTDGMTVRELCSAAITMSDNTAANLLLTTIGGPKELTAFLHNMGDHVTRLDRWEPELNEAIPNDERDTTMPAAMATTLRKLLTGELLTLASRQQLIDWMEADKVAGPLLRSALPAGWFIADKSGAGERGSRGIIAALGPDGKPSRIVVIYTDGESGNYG

[5] = viability loss in HepG2 hepatoma cells – cell-based, ATP luminescence, cherry-pick, activator set 2, cytotoxicity control, dose response (AID 1053143); format: functional
[6] = target: T2, Sentrin-specific protease 1 (Homo sapiens, UniProt Q9P0U3); experiment: Dose response confirmation of small molecule inhibitors of the catalytic domain of the SUMO protease, SENP1 in a FRET assay.; format: functional; conditions: read-out: IC50_Mean
T2 sequence (Q9P0U3 whole entry): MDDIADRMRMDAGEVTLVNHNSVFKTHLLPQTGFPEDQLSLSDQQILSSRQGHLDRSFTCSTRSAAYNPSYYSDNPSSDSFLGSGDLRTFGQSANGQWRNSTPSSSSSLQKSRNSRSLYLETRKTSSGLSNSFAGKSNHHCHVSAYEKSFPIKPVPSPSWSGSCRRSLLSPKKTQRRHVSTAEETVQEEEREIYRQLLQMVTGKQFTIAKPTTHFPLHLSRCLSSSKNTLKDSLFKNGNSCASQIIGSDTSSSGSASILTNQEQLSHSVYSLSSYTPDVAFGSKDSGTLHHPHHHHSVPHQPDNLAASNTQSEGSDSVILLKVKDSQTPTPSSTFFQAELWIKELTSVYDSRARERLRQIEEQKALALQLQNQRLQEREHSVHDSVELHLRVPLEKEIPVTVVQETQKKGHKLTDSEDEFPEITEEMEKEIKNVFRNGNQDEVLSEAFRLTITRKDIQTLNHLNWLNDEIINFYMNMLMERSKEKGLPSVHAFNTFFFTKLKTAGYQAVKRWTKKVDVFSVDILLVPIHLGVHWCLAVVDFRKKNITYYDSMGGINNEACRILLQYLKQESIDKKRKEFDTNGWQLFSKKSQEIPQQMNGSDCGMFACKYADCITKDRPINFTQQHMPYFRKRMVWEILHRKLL

[7] = target: T2, Sentrin-specific protease 1; experiment: SENP1 catalytic domain blockers, concentration series – biochemical, kinetic FRET, dose response (AID 651697); format: functional; conditions: read-out: IC50_Mean
[8] = viability loss in HEK293T cells – cell-based, cherry-picks, cytotoxicity control for HIV Vif inhibitor project, dose response (AID 652208); format: functional
[9] = HIV-1 AD8 envelope cell-cell fusion blockers – cherry-pick, dose response (AID 652062); format: functional, cell-based;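 also: luciferase signal from cell-cell fusion driven by HIV-1 clade B AD8 Env; potency is for inhibitors of fusion seen as a drop in luminescence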
[10] = viability loss in CEM21 cells – cell-based, CellTiter-Glo luminescence, cherry-picked, cytotoxicity control for viral fusion inhibitor project, dose response (AID 652042); format: functional;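 also: potency for signal decrease meaning cytotoxicity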
[11] = off-target signal loss in HeLa-CEM21 co-culture – HeLa F-luc CTL cells, cherry-picked, counter-screen for HIV-1 Env fusion inhibitor project, dose response (AID 652040); format: functional, cell-based;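 also: potency for signal decrease marking cytotoxic or nonspecific inhibition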
[12] = target: T3, Small ubiquitin-related modifier 1 (Homo sapiens, UniProt P63165); experiment: SUMO1 protein interaction blockers, potency – biochemical, fluorescence polarization, uHTS hits, dose response (AID 624382); format: functional; conditions: read-out: IC50_Mean
T3 sequence (P63165 whole entry, the tested form may be a part): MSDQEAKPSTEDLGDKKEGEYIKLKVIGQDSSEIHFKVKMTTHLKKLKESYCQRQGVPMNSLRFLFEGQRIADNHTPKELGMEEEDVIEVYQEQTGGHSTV

[13] = target: T4, Carboxy-terminal domain RNA polymerase II polypeptide A small phosphatase 1 (Homo sapiens, UniProt Q9GZU7); experiment: CTDSP1 inhibitors, concentration-response, biochemical, absorbance readout, ultra-high-throughput screen actives (AID 540297); format: functional
T4 sequence (Q9GZU7 whole entry): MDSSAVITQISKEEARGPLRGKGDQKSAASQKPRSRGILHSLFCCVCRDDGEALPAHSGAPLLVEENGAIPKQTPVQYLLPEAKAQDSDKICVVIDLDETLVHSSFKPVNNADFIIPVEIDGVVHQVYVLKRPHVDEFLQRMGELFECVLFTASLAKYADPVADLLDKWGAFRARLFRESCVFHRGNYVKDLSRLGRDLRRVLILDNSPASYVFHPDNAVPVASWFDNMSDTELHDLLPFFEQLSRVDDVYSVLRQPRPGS

[14] = target: T5, Caspase-6 (Homo sapiens, UniProt P55212); experiment: inhibition of CASP6 peptide cleavage – biochemical, VEID-R110 fluorescence, cherry-pick, dose response (AID 720632)
T5 sequence (P55212 whole entry): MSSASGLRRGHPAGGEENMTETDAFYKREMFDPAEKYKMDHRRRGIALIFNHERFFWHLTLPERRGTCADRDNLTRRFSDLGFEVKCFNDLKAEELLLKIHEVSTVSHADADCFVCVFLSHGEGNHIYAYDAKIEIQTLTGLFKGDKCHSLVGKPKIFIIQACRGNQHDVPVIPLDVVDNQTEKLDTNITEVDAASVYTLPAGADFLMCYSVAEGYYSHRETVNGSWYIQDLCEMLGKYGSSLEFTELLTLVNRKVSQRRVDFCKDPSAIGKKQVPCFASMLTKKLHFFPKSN

[15] = target: T3, Small ubiquitin-related modifier 1; experiment: SUMO1 protein-protein binding blockers, potency – biochemical, FRET, dose response (AID 624383); format: functional; conditions: read-out: IC50_Mean
[16] = target: FAD-linked sulfhydryl oxidase ALR (Homo sapiens, UniProt P55789); experiment: ALR-catalysed DTT oxidation blockers – biochemical, H2O2 detection, luminescence, cherry-pick, dose response (AID 493248)
FAD-linked sulfhydryl oxidase ALR, sequence (P55789 whole entry): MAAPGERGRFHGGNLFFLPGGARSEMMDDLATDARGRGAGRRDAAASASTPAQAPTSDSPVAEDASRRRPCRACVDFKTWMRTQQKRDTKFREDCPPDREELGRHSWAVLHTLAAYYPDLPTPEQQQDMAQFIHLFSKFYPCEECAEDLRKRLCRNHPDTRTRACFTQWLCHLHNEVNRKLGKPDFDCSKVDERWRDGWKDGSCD

## Cc1ccc(CNC(=O)C2CCC(=O)N(CCc3ccccn3)C2)s1 (centres undefined)
[1]
  AC50: 35.6 µM (active)

## S=c1[nH]nc(Cn2c(-c3ccccn3)nc3ccccc32)n1-c1ccc2c(c1)OCCO2
[2]
  IC50: > 59.6 µM (inactive)
[3]
  IC50: > 59.6 µM (inactive)
[4]
  IC50: > 59.6 µM (inactive)

## O=C(c1ccc2c3n(nc2c1)-c1ccc(Cl)cc1CO3)N1CCCCC1
[5]
  AC50: 26 µM (active)

## COc1ccccc1-n1c(S)nnc1-c1ccco1
[2]
  IC50: > 59.6 µM (inactive)
[3]
  IC50: > 59.6 µM (inactive)
[4]
  IC50: > 59.6 µM (inactive)

## CCn1c(-c2nn(-c3ccccc3)ccc2=O)n[nH]c1=S
[2]
  IC50: > 59.6 µM (inactive)
[3]
  IC50: > 59.6 µM (inactive)
[4]
  IC50: > 59.6 µM (inactive)

## Cc1c(C#N)c(O)nc(O)c1N=Nc1ccc(Br)cc1C(=O)O
[6]
  IC50: 10.6 µM (active)
[7]
  IC50: 18.1 µM (active)

## O=C(c1ccncc1)N1CCCC(N2CCN(c3cccc(C(F)(F)F)c3)CC2)C1 (centres undefined)
[1]
  AC50: 31.8 µM (active)

## Cc1ccc(S(=O)(=O)c2nc(-c3ccccc3Cl)oc2N(C)C2CCN(C)CC2)cc1
[8]
  AC50: 23.3 µM (active)

## O=C(Nc1ccc(C(=O)OC2CCCCC2)cc1)c1ccncc1
[9]
  AC50: 13.8 µM (active)
[10]
  AC50: 64.2 µM (active)
[11]
  AC50: > 70 µM (inactive)

## CC1=CCC(C(=O)O)C(C(=O)NC2CCCCC2)C1 (centres undefined)
[12]
  IC50: > 66.6 µM (inactive)
[13]
  IC50: 33.8 µM (active)
[14]
  AC50: 10.2 µM (active)
[15]
  IC50: 20.4 µM (inactive)

## Cc1ccc(Nc2nc(-c3ccc(O)cc3O)cs2)nc1
[5]
  AC50: 26 µM (active)
[16]
  AC50: 0.288 µM (active)
